Laboratory results published in US20250289785A1, “INDOLE DERIVATIVE, METHOD FOR PREPARING SAME, AND USE THEREOF” (MITOIMMUNE THERAPEUTICS INC., priority 2021, published 2025).
Read-outs that look alike come from different tables or passages of the source.

What was measured:
MLE-12 cells = assay: Cell death protective effect in lung epithelial cells against RSL3 (LDH); type: cell-based, rat; settings: MLE-12, RSL3, 1 μM, 24 h
Method: In order to identify the protective effect on lung epithelial cells, MLE-12 cells were divided into 96-well plates by 5×10^3 and cultured for 18 to 24 hours. The compounds of Examples were diluted to final concentrations of 0.03 and 0. μM, treated in each well, and incubated for 20 minutes. RSL3 was treated to have final concentrations of 1. μM, respectively, and cultured for 24 hours. In order to identify the protective effect of each compound, the degree of LDH extracellular secretion was measured using cytotoxicity LDH assay kit [Dojindo; CK12]. Briefly, at the time when the treatment of the cells with RSL3 for 24 hours is completed, the supernatants containing the cells are taken by 70 μL and transferred to a new 96-well plate. The assay buffer included in the kit is added in an amount of 70 μL/well (the same amount as the sample) thereto, and then the plate is wrapped with a foil and the reaction is performed at room temperature for 15 minutes.

H9C2 cells [1] = assay: Cell death protective effect in cardiac myocytes against Erastin, glutamate and RSL3 (LDH); type: cell-based, white mouse; settings: 24 h
Method: In order to identify the protective effect on cardiac cells, H9C2 cells were divided into 96-well plates by 1×10^4 and cultured for 18 to 24 hours. The compounds of Examples were diluted to final concentrations of 0.1 and 1.0 μM, treated in each well, and incubated for 15 to 20 minutes. Erastin, glutamate, and RSL3 were treated to have final concentrations of 1 μM, 25 mM, and 0.5 μM, respectively, and cultured for 24 hours. In order to identify the protective effect of each compound, the degree of LDH extracellular secretion was measured using cytotoxicity LDH assay kit [Dojindo; CK12]. Briefly, at the time when the treatment of the cells with Erastin, glutamate, and RSL3 for 24 hours is completed, the supernatants containing the cells are taken by 70 μL and transferred to a new 96-well plate. The assay buffer included in the kit is added in an amount of 70 μL/well (the same amount as the sample) thereto, and then the plate is wrapped with a foil and the reaction is performed at room temperature for 15 minutes.

H9C2 cells [2] = assay: Maintenance of intracellular calcium level in heart cells treated with t-BHP (FLIPR Calcium 6); type: cell-based, rat; settings: H9C2, t-BHP 150 μM
Method: To examine the maintenance effect on calcium level in heart cells, H9C2 cells were divided into a 96-well plate by 1.5×10^4 cells/well and cultured for 24 hours. To measure intracellular calcium level, a FLIPR Calcium 6 assay kit (Molecular devices; #R8190) was used. Following the experimental method provided by the manufacturer, cells were treated with probenecid and calcium-sensitive dye for 1.75 hours, and then the cells were treated with the compound of Example 2 for 0.25 hours (the final concentration of the compound was 0.02 or 0.01 μM). And the cells were treated with t-BHP to a final concentration of 150 μM, then intracellular calcium level was measured every 30 seconds in real time.
FIG. 1 is a graph regarding the regulatory effect of the compound of Example 2 on calcium level under t-BHP treatment. The ΔF/F(Max−Min) value on the vertical axis is the difference between the maximum and minimum fluorescence intensity values of the calcium-sensitive dye after treatment with t-BHP (150 μM), and this value increases as intracellular calcium level increases.

[3] = Plasma and brain concentration after oral administration to ICR mice (HPLC-MS/MS); type: in vivo; settings: 10 mg/kg; for concentration at 2 h / concentration at 24 h / AUC(0-t): ICR, mouse, po
Method: […] parameters can be represented as maximum concentration in plasma (Cmax), time taken until maximum concentration in plasma (Tmax), area under the plasma concentration-time curve (AUClast and AUCinf), and half-life (t1/2), and the like.
The compound of example 2 was orally administered to ICR mice at a dose of 10 mg/kg, and drug concentration in mouse plasma was measured using HPLC-MS/MS spectroscopy at 0.5, 1, 2, 4, 8 and 24 hours. The mouse brains were removed at 2 or 24 hours, and drug concentration in the brain was measured using HPLC-MS/MS spectroscopy. The area under the plasma concentration v. time curve (AUCinf) was measured to be […], and at 2 hours after administration drug concentration in plasma was 546 ng/mL and brain drug concentration was measured at 1043 ng/mL. […] Further, at 24 hours after administration, for Embodiment 2, drug concentration in plasma was measured to be 4.7 ng/mL and drug concentration in the brain was measured at 5.7 ng/mL. With the brain-plasma drug concentration ratio at 1.23, drug exposure in the brain was still high.
The Comparative Example compound was orally administered to ICR mice at a dose of 10 mg/kg, and drug concentration in mouse plasma was measured using HPLC-MS/MS spectroscopy at 0.5, 1, 2, 4, 8 and 24 hours. The mouse brains were removed at 2 or 24 hours, and drug concentration in the brain was measured using HPLC-MS/MS spectroscopy.

[4] = H9C2, Erastin, 1 μM, compound 0.1 μM
[5] = H9C2, Erastin, 1 μM, compound 1.0 μM
[6] = H9C2, Glutamate, 25 mM, compound 0.1 μM
[7] = H9C2, Glutamate, 25 mM, compound 1.0 μM
[8] = H9C2, RSL3, 0.5 μM, compound 0.1 μM
[9] = H9C2, RSL3, 0.5 μM, compound 1.0 μM
[10] = ICR mouse, 2 hours after administration

Row | Structure (SMILES) | inhibition (%) (MLE-12 cells; compound 0.03 μM) | inhibition (%) (MLE-12 cells; compound 0.3 μM) | inhibition (%) (H9C2 cells [1]; [4]) | inhibition (%) (H9C2 cells [1]; [5]) | inhibition (%) (H9C2 cells [1]; [6]) | inhibition (%) (H9C2 cells [1]; [7]) | inhibition (%) (H9C2 cells [1]; [8]) | inhibition (%) (H9C2 cells [1]; [9]) | other results
1 | COCc1cc(NC2CCOCC2)c2[nH]c(-c3ccccc3)cc2c1 [Example 1, 5-(methoxymethyl)-2-phenyl-N-tetrahydropyran-4-yl-1H-indol-7-amine] | 88% | 100% | 100% | 100% | 97% | 98% | 100% | 100% | 
2 | COCc1cc(NC2CCCC2)c2[nH]c(-c3ccccc3)cc2c1 [Example 2, N-cyclopentyl-5-(methoxymethyl)-2-phenyl-1H-indol-7-amine] | 84% | 9% | 100% | 100% | 97% | 98% | 100% | 100% | intracellular calcium level, ΔF/F(Max−Min) (H9C2 cells [2]; compound 0.01 μM): significantly decreased; intracellular calcium level, ΔF/F(Max−Min) (H9C2 cells [2]; compound 0.02 μM): within normal range; brain drug concentration [3, 10]: 1043.2 ng/mL; drug concentration in plasma [3, 10]: 546.1 ng/mL; AUClast, Brain ([3]; ICR mouse, from the 2 and 24 hr samples): 12581.1 ng·h/g; AUC(0-inf) ([3]; ICR mouse, plasma, read-out: area under the plasma concentration v. time curve (AUCinf)): 4960 ng·h/mL; concentration at 2 h ([3]; brain, 2 hours after administration, read-out: brain drug concentration): 1040 ng/mL; concentration at 24 h ([3]; brain, 24 hours after administration, read-out: drug concentration in the brain): 5.7 ng/mL; concentration at 2 h ([3]; plasma, 2 hours after administration, read-out: drug concentration in plasma): 546 ng/mL; concentration at 24 h ([3]; plasma, 24 hours after administration, read-out: drug concentration in plasma): 4.7 ng/mL; AUC(0-t) ([3]; plasma, from the 2 and 24 hr samples, read-out: AUClast, Plasma): 6600 ng·h/mL; AUC(0-t) ([3]; plasma, plasma, read-out: 0.5~24 hr AUClast): 4940 ng·h/mL; AUC(0-t) ([3]; plasma, plasma, read-out: area under the plasma concentration v. time curve (AUClast)): 4940 ng·h/mL; Kp at 2 h ([3]; brain/plasma, ICR mouse, 2 hours after administration, read-out: brain-plasma drug concentration ratio (B/P ratio)): 1.91; Kp at 24 h ([3]; brain/plasma, ICR mouse, 24 hours after administration, read-out: brain-plasma drug concentration ratio (B/P ratio)): 1.23; Kp ([3]; brain/plasma, ICR mouse, read-out: AUClast B/P ratio): 1.9
3 | COCc1cc(NC2CC[S+]([O-])CC2)c2[nH]c(-c3ccccc3)cc2c1 (centres unmarked) [Example 14, 5-(methoxymethyl)-N-(1-oxothian-4-yl)-2-phenyl-1H-indol-7-amine] | 50% | 100% | 100% | 100% | 97% | 99% | 100% | 100% | 
4 | CCOCc1cc(NC2CCCC2)c2[nH]c(-c3ccccc3)cc2c1 [Example 19, N-cyclopentyl-5-(ethoxymethyl)-2-phenyl-1H-indol-7-amine] | 93% | 100% | 100% | 100% | 99% | 100% | 100% | 100% | 
5 | CCOCc1cc(NC2CCOCC2)c2c(c1)c(COC)c(-c1ccccc1)n2C [Example 29, 5-(ethoxymethyl)-3-(methoxymethyl)-1-methyl-2-phenyl-N-(tetrahydro-2H-pyran-4-yl)-1H-indol-7-amine] | 0% | 95% | 1% | 100% | 6% | 95% | 10% | 100% | 
6 | COCCc1cc(NC2CCOCC2)c2[nH]c(-c3ccccc3)cc2c1 [Example 41, 5-(2-methoxyethyl)-2-phenyl-N-(tetrahydro-2H-pyran-4-yl)-1H-indol-7-amine] | 95% | 97% | 100% | 100% | 99% | 98% | 100% | 100% | 
7 | CCOCc1cc(NC2CCOCC2)c2[nH]c(-c3ccccc3)c(-c3ncc[nH]3)c2c1 [Example 46, 5-(ethoxymethyl)-3-(1H-imidazol-2-yl)-2-phenyl-N-(tetrahydro-2H-pyran-4-yl)-1H-indole-7-amine] | 0% | 7% | 4% | 100% | 4% | 94% | 15% | 9% | 
8 | CCOC(=O)c1ccc(NC2CCCCC2)c(N)c1 [Ferrostatin-1, reference compound] | 25% | 98% | 100% | 100% | 95% | 97% | 83% | 100% | 
